Data on 7 molecules can be found in ChEMBL document CHEMBL1201862, “PubChem BioAssay data set” (2004).

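Where inhibition never reached the appropriate level, the endpoint shown equals the highest concentration tested. Otherwise, values were interpolated linearly from a five-concentration, 48-hour dose response in 96-well plates. GI50 marks 50% less growth.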 Calls of active or inactive are those of the source. Cut-off read from the data, not from the text of the source: active = GI50 up to about 1.1 µM and inactive = higher. Where only a bound is given, the exact number is not on record here.

Among the test systems are A549; U-251; MOLT-4; SR; SNB-19; HT-29; UACC-257; OVCAR-5; EKVX; TK-10; NCI-H522; HCT-15; CAKI-1; LOX IMVI; OVCAR-4; K562; DMS-114.
What all share (assay): NCI tumour cell line growth inhibition, 48 h

`CC(C)(c1ccccc1)c1ccc(OC#N)cc1`: the GI50 with A549 was 73.5 µM (inactive); in the assay on U-251, 47.2 µM (inactive); with MOLT-4, 35.2 µM (inactive); in the assay with SR, 19.2 µM (inactive); in the assay on SNB-19, > 78 µM (inactive); in the assay on HT-29 it was > 70.3 µM (inactive). Further, the GI50 with UACC-257 is > 100 µM (inactive); in the assay with OVCAR-5 it was > 100 µM (inactive); in the assay on EKVX it was > 100 µM (inactive); with TK-10 it was > 100 µM (inactive); in the assay with NCI-H522, 15.2 µM (inactive); in the assay with HCT-15, 15.2 µM. For the same molecule, the GI50 in the assay on CAKI-1 was > 95.5 µM (inactive); with LOX IMVI, > 41 µM (inactive); in the assay with OVCAR-4 it was 71.4 µM (inactive); with K562, 37.8 µM (inactive); with DMS-114, 28.4 µM (inactive).

With `O=C1c2ccccc2C(=O)c2c1cc(S(=O)(=O)O)c(O)c2O` [Alizarin Red S], the GI50 with A549 is > 100 µM (inactive); with U-251, > 100 µM (inactive); with MOLT-4 it was > 100 µM (inactive); with SR it was > 100 µM (inactive); in the assay with SNB-19, > 10 µM (inactive); in the assay with HT-29, > 100 µM (inactive). Also, the GI50 was > 100 µM (inactive) in the assay on UACC-257; > 100 µM (inactive) with OVCAR-5; > 100 µM (inactive) with EKVX; > 100 µM (inactive) in the assay on TK-10; > 100 µM (inactive) in the assay with NCI-H522; > 100 µM in the assay with HCT-15. In addition, the GI50 in the assay with CAKI-1, in the assay on LOX IMVI, in the assay on OVCAR-4, in the assay on K562 and in the assay on DMS-114 was > 100 µM (inactive) each time.

With `COc1cc2c[n+](C)c3c4cc(OC)c(OC)cc4c(OCCCCCCCCOc4cc5c6cc(OC)c(OC)cc6c[n+](C)c5c5cc(OC)c(OC)cc45)cc3c2cc1OC`, the GI50 with A549 is > 100 µM (inactive); with U-251, 12.9 µM (inactive); in the assay on MOLT-4, 31.6 µM (inactive); with SR, 4.28 µM (inactive); in the assay with SNB-19, 17.4 µM (inactive); in the assay with HT-29, 67.9 µM (inactive). Also, the GI50 in the assay on UACC-257 is > 100 µM (inactive); with OVCAR-5, > 100 µM (inactive); in the assay on EKVX, > 100 µM (inactive); in the assay on TK-10 it was > 100 µM (inactive); in the assay with NCI-H522, > 100 µM (inactive); with HCT-15, > 100 µM. The GI50 in the assay on CAKI-1 was > 100 µM (inactive); in the assay on LOX IMVI, > 100 µM (inactive); in the assay with OVCAR-4 it was > 100 µM (inactive); in the assay on K562 it was 8.71 µM (inactive); in the assay with DMS-114, 22.1 µM (inactive).

Turning to `NC(CCCNc1cccc(O)c1)C(=O)O` (centres undefined), the GI50 in the assay on A549, with U-251, in the assay with MOLT-4, in the assay on SR, in the assay on SNB-19 and in the assay with HT-29 was > 100 µM (inactive) throughout. The GI50 in the assay with UACC-257 is > 100 µM (inactive); with OVCAR-5 it was > 100 µM (inactive); in the assay with EKVX, > 100 µM (inactive); in the assay on TK-10, > 100 µM (inactive); in the assay with NCI-H522 it was > 100 µM (inactive); with HCT-15 it was > 100 µM. For the same molecule, the GI50 with CAKI-1, in the assay with LOX IMVI, with OVCAR-4, in the assay on K562 and in the assay on DMS-114 was > 100 µM (inactive) in each case.

As to `Cc1cc(C)c(C2[C@H]3C(=O)N(c4ccc(Cc5ccc(N6C(=O)[C@@H]7ON(c8ccccc8)C(c8c(C)cc(C)cc8C)[C@@H]7C6=O)cc5)cc4)C(=O)[C@H]3ON2c2ccccc2)c(C)c1` (some centres undefined), the GI50 in the assay with A549, with U-251, with MOLT-4, with SR, in the assay with SNB-19 and in the assay on HT-29 was > 100 µM (inactive) in each case. The GI50 with UACC-257 is > 100 µM (inactive); with OVCAR-5, > 100 µM (inactive); with EKVX it was > 100 µM (inactive); in the assay on TK-10, > 100 µM (inactive); with NCI-H522, > 100 µM (inactive); in the assay with HCT-15, > 100 µM. Also, the GI50 is 57.9 µM (inactive) with CAKI-1; > 100 µM (inactive) with LOX IMVI; > 100 µM (inactive) with OVCAR-4; > 100 µM (inactive) with K562; > 100 µM (inactive) in the assay with DMS-114.

On to `CC(C)Cc1cc(CCC(=O)Nc2ccccc2[N+](=O)[O-])nc(NC#N)n1`, for which the GI50 in the assay on A549, in the assay with U-251, in the assay on MOLT-4, in the assay with SR, in the assay with SNB-19 and in the assay on HT-29 was > 100 µM (inactive) throughout. The GI50 was > 100 µM (inactive) in the assay with UACC-257; > 100 µM (inactive) in the assay with OVCAR-5; > 100 µM (inactive) with EKVX; > 100 µM (inactive) in the assay on TK-10; > 100 µM (inactive) with NCI-H522; > 100 µM with HCT-15. Also, the GI50 with CAKI-1, with LOX IMVI, in the assay on OVCAR-4, with K562 and with DMS-114 was > 100 µM (inactive) throughout.

`COc1cccc2c1C(=O)c1c(O)c3c(c(O)c1C2=O)C[C@@](O)(C(C)=O)C[C@@H]3OC1CC([N+]([O-])(Cc2ccccc2)Cc2ccccc2)C(O)C(C)O1` (some centres undefined): the GI50 in the assay on A549 is 1.29 µM (inactive); in the assay with U-251, 1.24 µM (inactive); in the assay on MOLT-4, 0.191 µM (active); with SR, 0.179 µM (active); with SNB-19, 2.13 µM (inactive); in the assay with HT-29 it was 1.52 µM (inactive). The GI50 in the assay with UACC-257 was 1.71 µM (inactive); in the assay on OVCAR-5 it was 1.79 µM (inactive); in the assay with EKVX, 1.8 µM (inactive); in the assay on TK-10 it was 1.6 µM (inactive); with NCI-H522, 1.39 µM (inactive); in the assay with HCT-15, 1.32 µM. For the same molecule, the GI50 in the assay on CAKI-1 was 1.14 µM (inactive); with LOX IMVI it was 1.02 µM (active); with OVCAR-4, 1.77 µM (inactive); with K562 it was 1.7 µM (inactive); in the assay with DMS-114, 1.33 µM (inactive).
